# Tested on: not listed separately
# Test: Metabolic stability in mouse liver microsomes assessed as compound remaining at 3 uM after 10 mins
# Assay type: ADME, Microsome
# Conditions: read-out: Activity
row,Structure (SMILES),"remaining at 10 min, 3 µM"
1,C[C@]12CN(c3cccc(S(C)(=O)=O)c3)C[C@](C)(O1)[C@@H]1C(=O)N(c3ccc(C#N)c(C(F)(F)F)c3)C(=O)[C@@H]12,92%

# Molecular target: T1, Androgen receptor (Homo sapiens, UniProt P10275)
# T1 sequence (P10275 whole entry): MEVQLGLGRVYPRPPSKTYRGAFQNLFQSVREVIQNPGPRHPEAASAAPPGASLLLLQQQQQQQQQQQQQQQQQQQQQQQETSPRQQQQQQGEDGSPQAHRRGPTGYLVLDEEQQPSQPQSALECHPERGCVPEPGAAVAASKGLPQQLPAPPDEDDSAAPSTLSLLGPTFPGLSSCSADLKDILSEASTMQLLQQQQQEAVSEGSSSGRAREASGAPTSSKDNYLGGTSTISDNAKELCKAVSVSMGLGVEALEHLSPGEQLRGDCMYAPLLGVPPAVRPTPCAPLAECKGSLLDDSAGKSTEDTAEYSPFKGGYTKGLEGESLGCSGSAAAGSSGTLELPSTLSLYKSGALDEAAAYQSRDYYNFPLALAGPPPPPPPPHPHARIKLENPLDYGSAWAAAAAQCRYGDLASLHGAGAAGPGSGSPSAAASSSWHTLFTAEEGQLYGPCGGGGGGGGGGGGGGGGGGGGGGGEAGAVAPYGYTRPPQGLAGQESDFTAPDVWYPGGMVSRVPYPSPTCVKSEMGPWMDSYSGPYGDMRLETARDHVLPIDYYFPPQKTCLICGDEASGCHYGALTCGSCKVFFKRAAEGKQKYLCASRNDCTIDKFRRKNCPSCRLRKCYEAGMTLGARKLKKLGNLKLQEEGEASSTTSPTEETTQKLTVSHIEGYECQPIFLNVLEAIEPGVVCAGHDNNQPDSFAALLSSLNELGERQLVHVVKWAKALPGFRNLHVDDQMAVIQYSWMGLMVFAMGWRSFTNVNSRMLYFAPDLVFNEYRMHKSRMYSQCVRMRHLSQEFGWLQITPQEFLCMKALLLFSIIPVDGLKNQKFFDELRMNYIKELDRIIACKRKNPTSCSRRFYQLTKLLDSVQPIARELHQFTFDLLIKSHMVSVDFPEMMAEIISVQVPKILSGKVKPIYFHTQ
# Test: Displacement of [3H]DHT from AR in human MDA-MB-453 cells
# Conditions: not given
row,Structure (SMILES),Ki
1,C[C@]12CN(S(=O)(=O)c3ccc(F)cc3)C[C@](C)(O1)[C@@H]1C(=O)N(c3ccc(C#N)c(C(F)(F)F)c3)C(=O)[C@@H]12,32 nM
2,C[C@]12CNC[C@](C)(O1)[C@@H]1C(=O)N(c3ccc(C#N)c(C(F)(F)F)c3)C(=O)[C@@H]12,21 nM
3,CCCN1C[C@@]2(C)O[C@@](C)(C1)[C@@H]1C(=O)N(c3ccc(C#N)c(C(F)(F)F)c3)C(=O)[C@@H]12,14 nM
4,CCC(=O)N1C[C@@]2(C)O[C@@](C)(C1)[C@@H]1C(=O)N(c3ccc(C#N)c(C(F)(F)F)c3)C(=O)[C@@H]12,84 nM
5,CC(C)C(=O)N1C[C@@]2(C)O[C@@](C)(C1)[C@@H]1C(=O)N(c3ccc(C#N)c(C(F)(F)F)c3)C(=O)[C@@H]12,39 nM
6,C[C@]12CN(C(=O)C3CC3)C[C@](C)(O1)[C@@H]1C(=O)N(c3ccc(C#N)c(C(F)(F)F)c3)C(=O)[C@@H]12,36 nM
7,C[C@]12CN(c3cccc(S(C)(=O)=O)c3)C[C@](C)(O1)[C@@H]1C(=O)N(c3ccc(C#N)c(C(F)(F)F)c3)C(=O)[C@@H]12,9.4 nM

# Tested on: Rattus norvegicus
# Test: Effect on immature rat prostate weight in rat assessed as ratio of weight of seminal vesicles to full body weight at 1 mg/kg, po qd for 3 days relative to control
# Assay type: functional, Prostate gland
# Conditions: not given
row,Structure (SMILES),Activity
1,C[C@]12CN(c3cccc(S(C)(=O)=O)c3)C[C@](C)(O1)[C@@H]1C(=O)N(c3ccc(C#N)c(C(F)(F)F)c3)C(=O)[C@@H]12,37%

# Tested on: LNCaP
# Test: Cytotoxicity against human LNCAP cells assessed as inhibition of DHT-induced cell growth at 5 uM
# Assay type: functional
# Conditions: not given
row,Structure (SMILES),inhibition at 5 µM
1,C[C@]12CN(S(=O)(=O)c3ccc(F)cc3)C[C@](C)(O1)[C@@H]1C(=O)N(c3ccc(C#N)c(C(F)(F)F)c3)C(=O)[C@@H]12,95%
2,C[C@]12CNC[C@](C)(O1)[C@@H]1C(=O)N(c3ccc(C#N)c(C(F)(F)F)c3)C(=O)[C@@H]12,20%
3,CCCN1C[C@@]2(C)O[C@@](C)(C1)[C@@H]1C(=O)N(c3ccc(C#N)c(C(F)(F)F)c3)C(=O)[C@@H]12,98%
4,CCC(=O)N1C[C@@]2(C)O[C@@](C)(C1)[C@@H]1C(=O)N(c3ccc(C#N)c(C(F)(F)F)c3)C(=O)[C@@H]12,91%
5,CC(C)C(=O)N1C[C@@]2(C)O[C@@](C)(C1)[C@@H]1C(=O)N(c3ccc(C#N)c(C(F)(F)F)c3)C(=O)[C@@H]12,72%
6,C[C@]12CN(C(=O)C3CC3)C[C@](C)(O1)[C@@H]1C(=O)N(c3ccc(C#N)c(C(F)(F)F)c3)C(=O)[C@@H]12,95%
7,C[C@]12CN(c3cccc(S(C)(=O)=O)c3)C[C@](C)(O1)[C@@H]1C(=O)N(c3ccc(C#N)c(C(F)(F)F)c3)C(=O)[C@@H]12,98%

# Tested on: MDA-MB-435
# Test: Cytotoxicity against human MDA-MB-435 cells assessed as inhibition of DHT-induced cell growth at 5 uM
# Assay type: functional
# Conditions: not given
row,Structure (SMILES),inhibition at 5 µM
1,C[C@]12CN(S(=O)(=O)c3ccc(F)cc3)C[C@](C)(O1)[C@@H]1C(=O)N(c3ccc(C#N)c(C(F)(F)F)c3)C(=O)[C@@H]12,100%
2,C[C@]12CNC[C@](C)(O1)[C@@H]1C(=O)N(c3ccc(C#N)c(C(F)(F)F)c3)C(=O)[C@@H]12,98%
3,CCCN1C[C@@]2(C)O[C@@](C)(C1)[C@@H]1C(=O)N(c3ccc(C#N)c(C(F)(F)F)c3)C(=O)[C@@H]12,99%
4,CCC(=O)N1C[C@@]2(C)O[C@@](C)(C1)[C@@H]1C(=O)N(c3ccc(C#N)c(C(F)(F)F)c3)C(=O)[C@@H]12,95%
5,CC(C)C(=O)N1C[C@@]2(C)O[C@@](C)(C1)[C@@H]1C(=O)N(c3ccc(C#N)c(C(F)(F)F)c3)C(=O)[C@@H]12,98%
6,C[C@]12CN(C(=O)C3CC3)C[C@](C)(O1)[C@@H]1C(=O)N(c3ccc(C#N)c(C(F)(F)F)c3)C(=O)[C@@H]12,99%
7,C[C@]12CN(c3cccc(S(C)(=O)=O)c3)C[C@](C)(O1)[C@@H]1C(=O)N(c3ccc(C#N)c(C(F)(F)F)c3)C(=O)[C@@H]12,96%

# Molecular target: T1, Androgen receptor
# Conditions: not given
row,Structure (SMILES),IC50
1,C[C@]12CN(S(=O)(=O)c3ccc(F)cc3)C[C@](C)(O1)[C@@H]1C(=O)N(c3ccc(C#N)c(C(F)(F)F)c3)C(=O)[C@@H]12,54 nM
2,C[C@]12CNC[C@](C)(O1)[C@@H]1C(=O)N(c3ccc(C#N)c(C(F)(F)F)c3)C(=O)[C@@H]12,128 nM
3,CCCN1C[C@@]2(C)O[C@@](C)(C1)[C@@H]1C(=O)N(c3ccc(C#N)c(C(F)(F)F)c3)C(=O)[C@@H]12,14 nM
4,CCC(=O)N1C[C@@]2(C)O[C@@](C)(C1)[C@@H]1C(=O)N(c3ccc(C#N)c(C(F)(F)F)c3)C(=O)[C@@H]12,129 nM
5,CC(C)C(=O)N1C[C@@]2(C)O[C@@](C)(C1)[C@@H]1C(=O)N(c3ccc(C#N)c(C(F)(F)F)c3)C(=O)[C@@H]12,215 nM
6,C[C@]12CN(c3cccc(S(C)(=O)=O)c3)C[C@](C)(O1)[C@@H]1C(=O)N(c3ccc(C#N)c(C(F)(F)F)c3)C(=O)[C@@H]12,7.4 nM

# Tested on: not listed separately
# Test: Metabolic stability in rat liver microsomes assessed as compound remaining at 3 uM after 10 mins
# Assay type: ADME, Microsome
# Conditions: read-out: Activity
row,Structure (SMILES),"remaining at 10 min, 3 µM"
1,C[C@]12CN(c3cccc(S(C)(=O)=O)c3)C[C@](C)(O1)[C@@H]1C(=O)N(c3ccc(C#N)c(C(F)(F)F)c3)C(=O)[C@@H]12,100%

# Tested on: not listed separately
# Test: Metabolic stability in human liver microsomes assessed as compound remaining at 3 uM after 10 mins
# Assay type: ADME, Microsome
# Conditions: read-out: Activity
row,Structure (SMILES),"remaining at 10 min, 3 µM"
1,C[C@]12CN(c3cccc(S(C)(=O)=O)c3)C[C@](C)(O1)[C@@H]1C(=O)N(c3ccc(C#N)c(C(F)(F)F)c3)C(=O)[C@@H]12,76%

# Tested on: Rattus norvegicus
# Test: Effect on immature rat prostate weight in rat assessed as ratio of weight of seminal vesicles to full body weight at 30 mg/kg, po qd for 3 days relative to control
# Assay type: functional, Prostate gland
# Conditions: not given
row,Structure (SMILES),Activity
1,C[C@]12CN(c3cccc(S(C)(=O)=O)c3)C[C@](C)(O1)[C@@H]1C(=O)N(c3ccc(C#N)c(C(F)(F)F)c3)C(=O)[C@@H]12,28%

# Molecular target: T1, Androgen receptor
# Conditions: not given
# Remark: another data set of the same source
row,Structure (SMILES),IC50
1,C[C@]12CN(S(=O)(=O)c3ccc(F)cc3)C[C@](C)(O1)[C@@H]1C(=O)N(c3ccc(C#N)c(C(F)(F)F)c3)C(=O)[C@@H]12,685 nM
2,C[C@]12CNC[C@](C)(O1)[C@@H]1C(=O)N(c3ccc(C#N)c(C(F)(F)F)c3)C(=O)[C@@H]12,> 5000 nM
3,CCCN1C[C@@]2(C)O[C@@](C)(C1)[C@@H]1C(=O)N(c3ccc(C#N)c(C(F)(F)F)c3)C(=O)[C@@H]12,25 nM
4,CCC(=O)N1C[C@@]2(C)O[C@@](C)(C1)[C@@H]1C(=O)N(c3ccc(C#N)c(C(F)(F)F)c3)C(=O)[C@@H]12,549 nM
5,CC(C)C(=O)N1C[C@@]2(C)O[C@@](C)(C1)[C@@H]1C(=O)N(c3ccc(C#N)c(C(F)(F)F)c3)C(=O)[C@@H]12,1610 nM
6,C[C@]12CN(C(=O)C3CC3)C[C@](C)(O1)[C@@H]1C(=O)N(c3ccc(C#N)c(C(F)(F)F)c3)C(=O)[C@@H]12,404 nM
7,C[C@]12CN(c3cccc(S(C)(=O)=O)c3)C[C@](C)(O1)[C@@H]1C(=O)N(c3ccc(C#N)c(C(F)(F)F)c3)C(=O)[C@@H]12,150 nM

# From ChEMBL document CHEMBL1208719, “Design and synthesis of 4-[3,5-dioxo-11-oxa-4,9-diazatricyclo[5.3.1.0(2,6)]undec-4-yl]-2-trifluoromethyl-benzonitriles as androgen receptor antagonists” (Bioorg Med Chem Lett, 2010)
